Experimental data published in patent US4681899A, “Method of preventing the growth of malaria parasites in erythrocytes” (priority 1985, dated 1987).

Columns and labels:
mice [1] = details: oral administration; cited from earlier work
man = details: adults; mixture of l-form and d-form; cited from earlier work
sickle red cells = details: studies on sickle red cells; cited from earlier work
p. Vinckei = test: in vivo efficacy in mice infected with p. Vinckei (FIG. 4); details: oral, 3 mg/kg body weight
Protocol: Mice: Four to eight-week-old BALB/C male and female mice from a breeding colony were used.
Parasite: Stabilates of p. Vinchei TCC 30091) and p. Falciparum (FCR-3 knobless) were used.
In vivo method: The tail vein was nicked and a blood droplet was smeared.
The smears were stained with Giemsa, infected erythrocytes (which contain trophozoite and schizont stage parasites) were counted and percent parasitemia estimated.
Approximately 10^5 p. Vinchei parasites were injected intraperitoneally (I.P.) into a donor mouse and at the time of ascending parasitemia, the infected mouse was exsanguinated and red blood cells are prepared for in vivo experimentation.
(§1) A control and a drug concentration (approximately 3 mg/kg body weight/day) were provided orally via drinking water. Water containing drugs were prepared daily. Water intake were monitored daily to insure proper dosage and hydration levels. A commercial food pellet were provided ad libitum.
To each mouse, 10^6 parasitized red blood cells were injected I.P., and daily blood samples were collected from the tail vein to monitor the levels of parasitemia.
Five mice were used for each group tested.
During the experimentation, we monitored both the percent parasitemia and percent survival rate of each experimental group.
Using p. Vinckei and a mice model, Ohnishi has also tested the efficacy of W-7.

mice [2] = test: side effects in mice at 3 mg/kg/day orally; format: in vivo
Protocol: as §1
Ohnishi tested an in vivo efficacy of these drugs using mice infected by p. Falciparum.

beta-adrenergic = details: cited from earlier work
p. Falciparum = test: in vivo efficacy in mice infected by p. Falciparum (FIG. 3); details: 3 mg/kg/day orally

Compound | acute LD50 (mice [1]) | effect on red cell metabolism and cell sickling (sickle red cells) | side effect (mice [2]) | beta-adrenergic blocker activity of the form (beta-adrenergic) | inhibition of the growth of parasites in mice (p. Falciparum) | other results
C=CCc1ccccc1OC[C@@H](O)CNC(C)C [l-alprenolol] | 278 mg/kg | – | – | – | – | –
CC(C)NCC(O)COc1cccc2ccccc12 (stereo not drawn) [propranolol] | – | altered the red cell metabolism and thus affected the cell sickling | – | – | – | usual effective dose in man as an anti-hypertensive drug (daily) (man): 160-480 mg daily; usual effective dose in man as an anti-hypertensive drug (per body weight) (man): 3-8 mg/kg body weight/day
C=CCc1ccccc1OCC(O)CNC(C)C (stereo not drawn) [alprenolol] | – | altered the red cell metabolism and thus affected the cell sickling | – | – | – | –
NCCCCCCNS(=O)(=O)c1cccc2c(Cl)cccc12 [W-7] | 75 mg/kg | altered the red cell metabolism and thus affected the cell sickling | – | – | – | life span after infection (p. Vinckei): extended their life span after infection; suppression of the growth of parasites (p. Vinckei): suppressed the growth of parasites
CC(C)NC[C@H](O)COc1cccc2ccccc12 [l-propranolol] | – | – | no side effect was observed | active beta-adrenergic blocker | effectively inhibited the growth of parasites in mice | –
CC(C)NC[C@@H](O)COc1cccc2ccccc12 [d-propranolol] | – | – | no side effect was observed | inactive beta-adrenergic blocker | effectively inhibited the growth of parasites in mice | –
